The test system of the test is guinea pig trachea smooth muscle. As to the kind of experiment: Bronchodilator (relaxant) effect on isolated guinea pig tracheal rings. The class given is cell-based. The conditions noted are these: for Relative Potency: guinea pig trachea, relative to VIP = 100%; for EC50: guinea pig tracheal rings, relaxation as % of maximum response to VIP 10^-6 M, three tissues pooled, linear regression, read-out: EC50 (M), agonist activity, bronchodilator effect. The text has this:
The bronchodilatory effect of VIP analogs was studied in a model utilizing guinea pig trachea. Wasserman, M. A. et al. "Comparative In Vitro Tracheal Relaxant Effects of Porcine and Hen VIP" in Vasoactive Intestinal Peptide ed. Said, S.I., Raven Press (New York, 1982).
All tissues were taken from male albino guinea pigs weighing 400-600 g, anesthetized with urethane 2 g/kg i.p. After exsanguination the trachea was removed and divided into four ring segments (3 mm length). Each ring was suspended by two 30 guage stainless steel wires in a 10 ml jacket tissue bath and attached via 4-0 silk thread to a Grass force displacement transducer (model FT03C, Grass Instrument Co., Quincy, MA), for isometric recording of tension. The smooth muscle was bathed in modified Krebs solution of the following composition: NaCl, 120 mM; KCl, 4.7 mM; CaCl2, 2.5 mM; MgSO4.7H2 O; 1.2 mM; NaHCO3, 25 mM; KH2 PO4 monobasic, 1.2 mM; and dextrose, 10 mM. Tissue baths were maintained at 37.5° C. and constantly bubbled with 95% O2 and 5% CO2. Responses were recorded on an 8 channel and 4 channel Hewlett-Packard (model 7702B and 7754A, respectively) recorder (Hewlett Packard, Paramus, NJ). Tracheal rings were placed under a resting tension of 1.5 g which was determined to be at or near optimal in preliminary experiments. Frequent readjustments of tension were required during the 60 min. stabilization period which followed. Tissues were rinsed at 15 min. intervals.
Cumulative concentration response curves were obtained for each tissue by successive […] in the bath concentration of VIP or potential VIP agonists according to the method of VanRossum J. M., Arch. Int Pharmacodyn, 143, 299-330 (1963). Only one cummulative dose response curve was obtained on a single piece of tissue. To minimize variability between tissues, relaxant responses are expressed as a percentage of the maximum response obtainable to VIP (10^-6 M=100%) added at the end of the concentration response curve. Responses obtained from three tissues were pooled and EC50 values were determined by linear regression.

Structures are written as SMILES. Peptide text beside a SMILES is read from it.

The source of these data is US4605641A, “Synthetic vasoactive intestinal peptide analogs” (Hoffmann-La Roche Inc., priority 1984, dated 1986).

Broadly, the EC50 is the concentration needed to bring the measured effect to its halfway point.

With `CCCC[C@H](NC(=O)[C@H](CCC(N)=O)NC(=O)[C@H](CCCCN)NC(=O)[C@H](CCCNC(=N)N)NC(=O)[C@H](CC(C)C)NC(=O)[C@H](CCCNC(=N)N)NC(=O)[C@@H](NC(=O)[C@H](Cc1ccc(O)cc1)NC(=O)[C@H](C)NC(=O)[C@H](CC(=O)O)NC(=O)[C@@H](NC(=O)[C@H](Cc1ccccc1)NC(=O)[C@@H](NC(=O)[C@H](C)NC(=O)[C@H](CC(=O)O)NC(=O)[C@H](CO)NC(=O)[C@@H](N)Cc1c[nH]cn1)C(C)C)[C@@H](C)O)[C@@H](C)O)C(=O)N[C@@H](C)C(=O)N[C@H](C(=O)N[C@@H](CCCCN)C(=O)N[C@@H](CCCCN)C(=O)N[C@@H](Cc1ccc(O)cc1)C(=O)N[C@@H](CC(C)C)C(=O)N[C@@H](CC(N)=O)C(=O)N[C@@H](CO)C(=O)N[C@H](C(=O)N[C@@H](CC(C)C)C(=O)N[C@@H](CC(N)=O)C(N)=O)[C@@H](C)CC)C(C)C` [(Ala^9, Nle^17)--VIP, (Ala^9, Nle^17)VIP] (HELM PEPTIDE1{H.S.D.A.V.F.T.D.A.Y.T.R.L.R.K.Q.[Nle].A.V.K.K.Y.L.N.S.I.L.N.[am]}$$$$V2.0), the “Relative Potency” value amounted to 100% and the EC50 stood at 1e-08 M.

Take `CCCC[C@H](NC(=O)[C@H](CCC(N)=O)NC(=O)[C@H](CCCCN)NC(=O)[C@H](CCCNC(=N)N)NC(=O)[C@H](CC(C)C)NC(=O)[C@H](CCCNC(=N)N)NC(=O)[C@@H](NC(=O)[C@H](Cc1ccc(O)cc1)NC(=O)[C@H](CC(N)=O)NC(=O)[C@H](CC(=O)O)NC(=O)[C@@H](NC(=O)[C@H](Cc1ccccc1)NC(=O)[C@@H](NC(=O)[C@H](C)NC(=O)[C@H](CC(=O)O)NC(=O)[C@H](CO)NC(=O)[C@@H](N)Cc1c[nH]cn1)C(C)C)[C@@H](C)O)[C@@H](C)O)C(=O)N[C@@H](C)C(=O)N[C@H](C(=O)N[C@@H](CCCCN)C(=O)N[C@@H](CCCCN)C(=O)N[C@@H](Cc1ccc(O)cc1)C(=O)N[C@@H](CC(C)C)C(=O)N[C@H](C(=O)N[C@@H](CO)C(=O)N[C@H](C(=O)N[C@@H](CC(C)C)C(=O)N[C@@H](CC(N)=O)C(N)=O)[C@@H](C)CC)[C@@H](C)O)C(C)C` [(Nle^17, Thr^24)--VIP, (Nle^17, Thr^24)VIP] (HELM PEPTIDE1{H.S.D.A.V.F.T.D.N.Y.T.R.L.R.K.Q.[Nle].A.V.K.K.Y.L.T.S.I.L.N.[am]}$$$$V2.0): the “Relative Potency” value was 125% and the EC50 amounted to 8e-09 M.

For `CCCC[C@H](NC(=O)[C@H](CCC(N)=O)NC(=O)[C@H](CCCCN)NC(=O)[C@H](CCCNC(=N)N)NC(=O)[C@H](CC(C)C)NC(=O)[C@H](CCCNC(=N)N)NC(=O)[C@@H](NC(=O)[C@H](Cc1ccc(O)cc1)NC(=O)[C@H](CC(N)=O)NC(=O)[C@H](CC(=O)O)NC(=O)[C@@H](NC(=O)[C@H](Cc1ccccc1)NC(=O)[C@@H](NC(=O)[C@H](C)NC(=O)[C@H](CC(=O)O)NC(=O)[C@H](CO)NC(=O)[C@@H](N)Cc1c[nH]cn1)C(C)C)[C@@H](C)O)[C@@H](C)O)C(=O)N[C@@H](C)C(=O)N[C@H](C(=O)N[C@@H](CCCCN)C(=O)N[C@@H](CCCCN)C(=O)N[C@@H](Cc1ccc(O)cc1)C(=O)N[C@@H](CC(C)C)C(=O)N[C@@H](CC(N)=O)C(=O)N[C@H](C(=O)N[C@H](C(=O)N[C@@H](CC(C)C)C(=O)N[C@@H](CC(N)=O)C(N)=O)[C@@H](C)CC)[C@@H](C)O)C(C)C` [(Nle^17, Thr^25)--VIP, (Nle^17, Thr^25)VIP] (HELM PEPTIDE1{H.S.D.A.V.F.T.D.N.Y.T.R.L.R.K.Q.[Nle].A.V.K.K.Y.L.N.T.I.L.N.[am]}$$$$V2.0), the “Relative Potency” value is recorded as 101% and the EC50 is 9.9e-09 M.

As to `CCCC[C@H](NC(=O)[C@H](CCC(N)=O)NC(=O)[C@H](CCCCN)NC(=O)[C@H](CCCNC(=N)N)NC(=O)[C@H](Cc1ccccc1)NC(=O)[C@H](CCCNC(=N)N)NC(=O)[C@H](CO)NC(=O)[C@H](Cc1ccc(O)cc1)NC(=O)[C@H](CC(N)=O)NC(=O)[C@H](CC(=O)O)NC(=O)[C@@H](NC(=O)[C@H](Cc1ccccc1)NC(=O)[C@@H](NC(=O)[C@H](C)NC(=O)[C@H](CC(=O)O)NC(=O)[C@H](CO)NC(=O)[C@H](Cc1c[nH]cn1)NC(C)=O)C(C)C)[C@@H](C)O)C(=O)N[C@@H](C)C(=O)N[C@H](C(=O)N[C@@H](CCCCN)C(=O)N[C@@H](CCCCN)C(=O)N[C@@H](Cc1ccc(O)cc1)C(=O)N[C@@H](CC(C)C)C(=O)N[C@@H](CC(N)=O)C(=O)N[C@@H](CO)C(=O)N[C@H](C(=O)N[C@@H](CC(C)C)C(=O)N[C@@H](CC(N)=O)C(N)=O)[C@@H](C)CC)C(C)C` [Ac--(Ser^11, Phe^13, Nle^17)--VIP, Ac-(Ser^11, Phe^13, Nle^17)VIP] (HELM PEPTIDE1{[ac].H.S.D.A.V.F.T.D.N.Y.S.R.F.R.K.Q.[Nle].A.V.K.K.Y.L.N.S.I.L.N.[am]}$$$$V2.0), the “Relative Potency” value turned out to be 45% and the EC50 is 2.2e-08 M.

As to `CCCC[C@H](NC(=O)[C@H](CCC(N)=O)NC(=O)[C@H](CCCCN)NC(=O)[C@H](CCCCN)NC(=O)[C@H](CC(C)C)NC(=O)[C@H](CCCNC(=N)N)NC(=O)[C@@H](NC(=O)[C@H](Cc1ccc(O)cc1)NC(=O)[C@H](CC(N)=O)NC(=O)[C@H](CC(=O)O)NC(=O)[C@@H](NC(=O)[C@H](Cc1ccccc1)NC(=O)[C@@H](NC(=O)[C@H](C)NC(=O)[C@H](CC(=O)O)NC(=O)[C@H](CO)NC(=O)[C@@H](N)Cc1c[nH]cn1)C(C)C)[C@@H](C)O)[C@@H](C)O)C(=O)N[C@@H](C)C(=O)N[C@H](C(=O)N[C@@H](CCCCN)C(=O)N[C@@H](CCCCN)C(=O)N[C@@H](Cc1ccc(O)cc1)C(=O)N[C@@H](CC(C)C)C(=O)N[C@@H](CC(N)=O)C(=O)N[C@@H](CO)C(=O)N[C@H](C(=O)N[C@@H](CC(C)C)C(=O)N[C@@H](CC(N)=O)C(N)=O)[C@@H](C)CC)C(C)C` [(Lys^14, Nle^17)--VIP, (Lys^14, Nle^17)VIP] (HELM PEPTIDE1{H.S.D.A.V.F.T.D.N.Y.T.R.L.K.K.Q.[Nle].A.V.K.K.Y.L.N.S.I.L.N.[am]}$$$$V2.0), the “Relative Potency” value is recorded as 172% and the EC50 came to 5.8e-09 M.

Turning to `CCCC[C@H](NC(=O)[C@H](CCC(N)=O)NC(=O)[C@H](CCCCN)NC(=O)[C@H](CCCNC(=N)N)NC(=O)[C@H](CC(C)C)NC(=O)[C@H](CCCCN)NC(=O)[C@@H](NC(=O)[C@H](Cc1ccc(O)cc1)NC(=O)[C@H](CC(N)=O)NC(=O)[C@H](CC(=O)O)NC(=O)[C@@H](NC(=O)[C@H](Cc1ccccc1)NC(=O)[C@@H](NC(=O)[C@H](C)NC(=O)[C@H](CC(=O)O)NC(=O)[C@H](CO)NC(=O)[C@H](Cc1c[nH]cn1)NC(C)=O)C(C)C)[C@@H](C)O)[C@@H](C)O)C(=O)N[C@@H](C)C(=O)N[C@H](C(=O)N[C@@H](CCCCN)C(=O)N[C@@H](CCCCN)C(=O)N[C@@H](Cc1ccc(O)cc1)C(=O)N[C@@H](CC(C)C)C(=O)N[C@@H](CC(N)=O)C(=O)N[C@@H](CO)C(=O)N[C@H](C(=O)N[C@@H](CC(C)C)C(=O)N[C@@H](CC(N)=O)C(N)=O)[C@@H](C)CC)C(C)C` [Ac--(Lys^12, Nle^17)--VIP, Ac-(Lys^12, Nle^17)VIP] (HELM PEPTIDE1{[ac].H.S.D.A.V.F.T.D.N.Y.T.K.L.R.K.Q.[Nle].A.V.K.K.Y.L.N.S.I.L.N.[am]}$$$$V2.0), the “Relative Potency” value was 67% and the EC50 was 1.5e-08 M.

Regarding `CCCC[C@H](NC(=O)[C@H](CCC(N)=O)NC(=O)[C@H](CCCCN)NC(=O)[C@H](CCCCN)NC(=O)[C@H](CC(C)C)NC(=O)[C@H](CCCCN)NC(=O)[C@@H](NC(=O)[C@H](Cc1ccc(O)cc1)NC(=O)[C@H](CC(N)=O)NC(=O)[C@H](CC(=O)O)NC(=O)[C@@H](NC(=O)[C@H](Cc1ccccc1)NC(=O)[C@@H](NC(=O)[C@H](C)NC(=O)[C@H](CC(=O)O)NC(=O)[C@H](CO)NC(=O)[C@@H](N)Cc1c[nH]cn1)C(C)C)[C@@H](C)O)[C@@H](C)O)C(=O)N[C@@H](C)C(=O)N[C@H](C(=O)N[C@@H](CCCCN)C(=O)N[C@@H](CCCCN)C(=O)N[C@@H](Cc1ccc(O)cc1)C(=O)N[C@@H](CC(C)C)C(=O)N[C@@H](CC(N)=O)C(=O)N[C@@H](CO)C(=O)N[C@H](C(=O)N[C@@H](CC(C)C)C(=O)N[C@H](C(N)=O)[C@@H](C)O)C(C)C)C(C)C` [(Lys^12, Lys^14, Nle^17, Val^26, Thn^28, (Lys^12, Lys^14, Nle^17, Val^26, Thr^28)VIP] (HELM PEPTIDE1{H.S.D.A.V.F.T.D.N.Y.T.K.L.K.K.Q.[Nle].A.V.K.K.Y.L.N.S.V.L.T.[am]}$$$$V2.0), the “Relative Potency” value stood at 143% and the EC50 turned out to be 7e-09 M.
